In patent publication US12220415B2, “WEE1 kinase inhibitors and methods of treating cancer using the same” (The Regents of the University of Colorado, A Body Corporate, priority 2018, dated 2025):
Read-outs that look alike come from different tables or passages of the source. Each block holds one molecule with its values, some of them ahead of it.

Key:
[1] = tested on: Daoy cells; assay: MTS cell viability assay in Daoy cells; assay type: cell-based, human; settings: for activity at 0.6 µM: at 600 nM; for inhibition at 0.6 µM: 72 hr, @ 600 nM, read-out: percent cell inhibition, DAOY; for EC50: read-out: EC50 cellular metabolic viability, Daoy
Experimental: (§1) FIG. 1A is a dose-response study for ONS-76 cells treated with a concentration range of WEE1 inhibitors for 72 hours in an MTS assay. […] FIG. 1B is a dose-response study for Daoy cells treated with a concentration range of WEE1 inhibitors for 72 hours in an MTS assay.
(§2) To evaluate the effect of the WEE1 kinase inhibitors, Daoy cells and ONS-76 cells (human primary medulloblastoma cell lines) were treated with test compounds and cell growth was by MTS assay (FIGS. 1A and 1B). […] Cells were incubated for 72 hr with 50 μL of each diluted drug solution. Cell viability was measured by 2 hr incubation with 30 μL CellTiter 96® AQueous One Cell Proliferation reagent (Promega) and formazan concentration assessed through colorimetric analysis using a BioTek Synergy H1 plate reader (Absorption=490 nm).

[2] = tested on: ONS-76 cells; assay: MTS cell viability assay in ONS-76 cells; assay type: cell-based; settings: Homo sapiens; for EC50: read-out: EC50 cellular metabolic viability, ONS-76; for IC50: read-out: Mean IC50, ONS-76; for inhibition at 1.16 µM: @ 1160 nM, read-out: percent cell inhibition, ONS-76
Experimental: as §1, §2

[3] = tested on: pCDK1 (Tyr15) in Daoy cell lysates; assay: pCDK1 (Tyr15) ELISA in Daoy cell lysates; assay type: cell-based, human; settings: 24 hours, single 220 nM dose
Experimental: WEE1 inactivates CDC2 through selective phosphorylation of the Tyr15 residue of cyclin-dependent kinase 1 (CDK1) stabilizing the CDC2-cyclin B complex. Therefore, inhibition of WEE1 kinase activity will prevent the phosphorylation of its substrate CDK1 at Tyr15. […] Following drug incubation, the media was aspirated from cells before cells were trypsinized and resuspended in TES/SB buffer containing protease inhibitors. Cells were lysed on ice through sonication, and cell lysates were diluted with ELISA Pathscan® sample diluent to a final volume of 100 μL and protein concentration of 0.05 mg/ml prior to use. The relative concentration of p-CDK1 Tyr15 was determined using an enzyme-linked immunosorbent assay according to recommended protocol (Cell Signaling, ELISA Pathscan® phosphor-Cdc2 (Tyr15)).

[4] = target: recombinant WEE1 kinase (Homo sapiens (Human), UniProt P30291); assay: LanthaScreen Eu TR-FRET kinase binding assay for WEE1 kinase inhibitory activity; settings: Kinase Tracer 178, 1 hour at room temperature
Experimental: A LanthaScreen™ kinase activity assay was conducted to assess WEE1 kinase inhibitory activity for compounds of this disclosure. […] All reagents were prepared as solutions in 1× kinase buffer A (Invitrogen) at 3× final desired concentration. […] Inhibitors were assayed in the final concentration range of 0.04 nM to 10 μM.

[5] = tested on: medulloblastoma cells; settings: Mol Cancer. 2014, 13:72, cited from earlier work
[6] = tested on: murine AML-expressing MLL-ENL, FLT3-ITD, and luciferase; assay: Murine AML model, disease progression by luciferase expression; assay type: in vivo; settings: mice with AML, cytarabine alone
Experimental: In a second toxicity study, mice without leukemia were treated with cytarabine and/or a WEE1 inhibitor for 5 of 7 days for 3 consecutive weeks. […] The inventors then used an aggressive model of murine AML-expressing MLL-ENL, FLT3-ITD, and luciferase, to determine whether WEE1 inhibition would enhance the anti-leukemia effects of cytarabine.

[7] = Homo sapiens, Daoy cells, 72 hours, MTS assay
[8] = Homo sapiens, Daoy cells, MTS assay
[9] = ONS-76 cells, 72 hours, MTS assay, n=3, ±=S.D.

recombinant WEE1 kinase, sequence (P30291 whole entry): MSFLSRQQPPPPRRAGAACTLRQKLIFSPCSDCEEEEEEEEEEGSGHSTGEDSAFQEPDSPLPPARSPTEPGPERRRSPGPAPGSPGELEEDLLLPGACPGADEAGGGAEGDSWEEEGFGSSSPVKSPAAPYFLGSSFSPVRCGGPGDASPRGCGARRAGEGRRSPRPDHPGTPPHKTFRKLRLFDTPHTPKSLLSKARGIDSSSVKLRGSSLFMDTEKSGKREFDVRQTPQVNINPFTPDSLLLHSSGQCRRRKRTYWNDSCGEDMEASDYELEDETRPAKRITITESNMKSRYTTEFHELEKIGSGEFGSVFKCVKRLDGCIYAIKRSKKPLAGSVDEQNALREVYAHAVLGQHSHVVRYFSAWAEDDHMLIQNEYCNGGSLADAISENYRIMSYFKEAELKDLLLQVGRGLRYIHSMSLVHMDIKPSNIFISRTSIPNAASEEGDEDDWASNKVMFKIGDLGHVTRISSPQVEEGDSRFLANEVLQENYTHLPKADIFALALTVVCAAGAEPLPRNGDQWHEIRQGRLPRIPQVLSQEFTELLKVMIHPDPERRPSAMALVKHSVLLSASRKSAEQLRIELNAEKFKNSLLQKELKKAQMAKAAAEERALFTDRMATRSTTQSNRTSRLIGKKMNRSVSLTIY

Structure (SMILES): C=CCn1c(=O)c2cnc(Nc3ccc(OCCN(C)C)cc3)nc2n1-c1cccc(C(C)(C)O)n1 [CM-181, 2-allyl-6-((4-(2-(dimethylamino)ethoxy)phenyl)amino)-1-(6-(2-hydroxypropan-2-yl)pyridin-2-yl)-1,2-dihydro-3H-pyrazolo[3,4-d]pyrimidin-3-one]
- activity at 0.6 µM [1, 7]: 81%
- inhibition at 0.6 µM [1, 8]: 82%
- EC50 [2, 9]: 203 ± 40 nM
- IC50 ([2]; ONS-76 cells, 72 hr, MTS assay): 273 nM
- pCDK1(Tyr15) level compared to DMSO control [3]: decrease

Structure (SMILES): C=CCn1c(=O)c2cnc(Nc3ccccc3)nc2n1-c1cccc(C(C)(C)O)n1 [drawing 14]
- IC50 [4]: 9.6 nM

Structure (SMILES): C=CCn1c(=O)c2cnc(Nc3ccc(CCN(C)C)cc3)nc2n1-c1cccc(C(C)(C)O)n1 [KAC-034, 2-allyl-6-((4-(2-(dimethylamino)ethyl)phenyl)amino)-1-(6-(2-hydroxypropan-2-yl)pyridin-2-yl)-1,2-dihydro-3H-pyrazolo[3,4-d]pyrimidin-3-one]
- activity at 0.6 µM [1, 7]: 84%
- inhibition at 0.6 µM [1, 8]: 83%
- EC50 [2, 9]: 252 ± 9 nM
- IC50 ([2]; ONS-76 cells, 72 hr, MTS assay): 495 nM
- pCDK1(Tyr15) level compared to DMSO control [3]: decrease

Structure (SMILES): C=CCn1c(=O)c2cnc(Nc3ccc(N4CCN(C)CC4)cc3)nc2n1-c1cccc(C(C)(C)O)n1 [AZD1775, 2-allyl-1-(6-(2-hydroxypropan-2-yl)pyridin-2-yl)-6-((4-(4-methylpiperazin-1-yl)phenyl)amino)-1,2-dihydro-3H-pyrazolo[3,4-d]pyrimidin-3-one, reference compound]
- activity in combination with cisplatin ([5]; medulloblastoma cells): synergistic activity
- single agent effect in medulloblastoma ([5]; single agent): suppressed cell growth, induced apoptosis, and decreased tumor growth
- EC50 ([1]; Homo sapiens, Daoy, 72 h): 150 nM
- IC50 ([1]; Homo sapiens, Daoy, 72 h, read-out: Mean IC50, DAOY): 378 nM
- EC50 ([1]; Daoy cells, 72 hours, MTS assay, n=3, ±=S.D.): 179 ± 16 nM
- EC50 ([2]; ONS-76, 72 h): 290 nM
- IC50 ([2]; ONS-76, 72 h): 221 nM
- pCDK1(Tyr15) level compared to DMSO control [3]: decrease

- IC50 [4]: 89.7 nM
Structure (SMILES): COc1ccc(Cn2c(=O)c3cnc(Nc4ccc(N5CCN(C)CC5)cc4)nc3n2-c2cccc(C(C)(C)O)n2)cc1

Structure (SMILES): C=CCn1c(=O)c2cnc(Nc3cccc(N(C)C)c3)nc2n1-c1cccc(C(C)(C)O)n1 [KAC-019, 2-allyl-6-((3-(dimethylamino)phenyl)amino)-1-(6-(2-hydroxypropan-2-yl)pyridin-2-yl)-1,2-dihydro-3H-pyrazolo[3,4-d]pyrimidin-3-one]
- inhibition at 1.16 µM ([2]; ONS-76 cells, 72 hr, MTS assay): 33%

- IC50 [4]: 1.8 nM
Structure (SMILES): C=CCn1c(=O)c2cnc(Nc3ccc(CCN(C)C)cc3)nc2n1-c1cccc(C(C)(C)O)n1 [drawing 20]

Structure (SMILES): C=CCn1c(=O)c2cnc(Nc3ccc(N4CCN(C)CC4)cc3)nc2n1-c1cccc(CO)n1 [CM-170, 2-allyl-1-(6-(hydroxymethyl)pyridin-2-yl)-6-((4-(4-methylpiperazin-1-yl)phenyl)amino)-1,2-dihydro-3H-pyrazolo[3,4-d]pyrimidin-3-one]
- inhibition at 1.16 µM ([2]; ONS-76 cells, 72 hr, MTS assay): 59%

- IC50 [4]: 78.1 nM
Structure (SMILES): C=CCn1c(=O)c2cnc(Nc3cccc(C#N)c3)nc2n1-c1cccc(C(C)(C)O)n1

Structure (SMILES): C=CCn1c(=O)c2cnc(Nc3cccc(CN(C)C)c3)nc2n1-c1cccc(C(C)(C)O)n1 [drawing 18]
- IC50 [4]: 9.1 nM

Structure (SMILES): Nc1ccn([C@@H]2O[C@H](CO)[C@@H](O)[C@@H]2O)c(=O)n1 [cytarabine]
- leukemia progression, measured by luciferase expression over time [6]: slowed the progression of the leukemia

Structure (SMILES): C=CCn1c(=O)c2cnc(Nc3cccc(CN(C)C)c3)nc2n1-c1cccc(C(C)(C)O)n1 [KAC-014, 2-allyl-6-((3-((dimethylamino)methyl)phenyl)amino)-1-(6-(2-hydroxypropan-2-yl)pyridin-2-yl)-1,2-dihydro-3H-pyrazolo[3,4-d]pyrimidin-3-one]
- inhibition at 1.16 µM ([2]; ONS-76 cells, 72 hr, MTS assay): 40%

Structure (SMILES): C=CCn1c(=O)c2cnc(Nc3ccc(N4CCN(C)CC4)cc3)nc2n1-c1cccc(C(C)(C)O)c1 [CM-169, 2-allyl-1-(3-(2-hydroxypropan-2-yl)phenyl)-6-((4-(4-methylpiperazin-1-yl)phenyl)amino)-1,2-dihydro-3H-pyrazolo[3,4-d]pyrimidin-3-one]
- inhibition at 1.16 µM ([2]; ONS-76 cells, 72 hr, MTS assay): 61%
- pCDK1(Tyr15) level compared to DMSO control [3]: statistically the same as that for AZD1775

Structure (SMILES): C=CCn1c(=O)c2cnc(Nc3cccc(C(=O)N(C)C)c3)nc2n1-c1cccc(C(C)(C)O)n1
- IC50 [4]: 27.3 nM

Structure (SMILES): C=CCn1c(=O)c2cnc(N)nc2n1-c1cccc(C(C)(C)O)n1
- IC50 [4]: 17.7 nM

Structure (SMILES): C=CCn1c(=O)c2cnc(Nc3ccccc3)nc2n1-c1cccc(C(C)(C)O)n1 [KAC-017, 2-allyl-1-(6-(2-hydroxypropan-2-yl)pyridin-2-yl)-6-(phenylamino)-1,2-dihydro-3H-pyrazolo[3,4-d]pyrimidin-3-one]
- inhibition at 1.16 µM ([2]; ONS-76 cells, 72 hr, MTS assay): 32%

Structure (SMILES): C=CCn1c(=O)c2cnc(Nc3ccc(OCCN(C)C)cc3)nc2n1-c1cccc(C(C)(C)O)n1 [drawing 21]
- IC50 [4]: 7.8 nM

- IC50 [4]: 13.6 nM
Structure (SMILES): C=CCn1c(=O)c2cnc(NCc3ccc(CC)cc3)nc2n1-c1cccc(C(C)(C)O)n1

- IC50 [4]: 179 nM
Structure (SMILES): C=C(C)c1cccc(-n2c3nc(Nc4ccc(N5CCN(C)CC5)cc4)ncc3c(=O)n2C)n1

- IC50 [4]: 10.4 nM
Structure (SMILES): C=CCn1c(=O)c2cnc(Nc3ccc(N4CCN(C)CC4)cc3)nc2n1-c1cccc(CO)c1
